Measured values published in patent US20230027066A1 (Urovant Sciences GmbH, priority 2019, published 2023).

Legend:
Assay type in all cases: in vivo, human
[1] = Phase 2b study, vital sign (HR, SBP, DBP) changes and orthostatic AEs; settings: tolterodine 4 mg
From the text: None led to discontinuation. The overall incidence of orthostatic symptoms was low.
Small differences in the percent of subjects exceeding categorical heart rate and blood pressure thresholds for vibegron were similar to those in the tolterodine arm.

[2] = Phase 3 study (75 mg), heart rate and blood pressure changes
From the text: (§1) Study assessments of safety included adverse events, physical examinations, vital signs (and weight), and clinical laboratory tests
Categorical changes are based on 3 consecutive post-baseline visits and patients are counted in all applicable categories (e.g., if a patient has a 12 unit increase then that patient is counted in both ≥5 and ≥10 unit columns).
Blood Pressure assessments are taken in triplicate and averaged at each visit.

men and women with OAB = assay: Phase 2b study of vibegron in OAB, Part 1, efficacy at Week 8 (voiding diary); settings: tolterodine ER 4 mg
From the text: Part 2 was designed to continue to assess the safety and efficacy of concomitant dosing. […] Subjects in both Part 1 and Part 2 had the option of enrolling in a 1-year extension. Participants were required to keep a voiding diary, recording the occurrence of each strong urge, total incontinence, and urge incontinence episode. Efficacy data for Part 1 and Part 2 are summarized herein.
The total number of urgency incontinence episodes must have exceeded the total number of stress incontinence episodes for all subjects.

[3] = Phase 3 study (75 mg), adverse events
Experimental: as §1
An adverse event is any untoward medical occurrence in a patient or clinical investigation patient, temporally associated with the use of a medicinal product, whether or not considered related to the medicinal product.
Adverse Events of Clinical Interest for this study included:
Safety analyses were conducted using the SAF and summarized by treatment group as treated. The treatment-emergent period is defined as the period of time from the first dose date of the double blinded Study Treatment through 28 days after the last dose of Study Treatment, or the date of initiation of another investigational agent or surgical intervention or rollover to the extension study, whichever occurs first. Safety was assessed through summaries of adverse events, the frequency of treatment discontinuations due to adverse events, and clinical laboratory evaluations.

[4] = system: men and women with overactive bladder; assay: extension study, OAB-q LF coping subscore at Week 52; settings: for OAB-q LF Coping Subscore, Week 52 Mean: Full Analysis Set Extension; for OAB-q LF Coping Subscore, Change from Baseline Mean at Week 52: baseline from parent study
[5] = 3 consecutive post-baseline visits

SMILES: Cc1ccc(O)c([C@H](CCN(C(C)C)C(C)C)c2ccccc2)c1 [Tolterodine ER, tolterodine, reference compound]
- DBP change from baseline, mean (95% CI) maximum, week 1 to 8 [1]: 5.19 (4.26, 6.13) mm Hg
- DBP change from baseline, mean (95% CI), week 1 [1]: −0.12 (−1.10, 0.86) mm Hg
- HR change from baseline, mean (95% CI) maximum, week 1 to 8 [1]: 5.66 (4.69, 6.63) bpm
- HR change from baseline, mean (95% CI), week 1 [1]: 0.68 (−0.31, 1.67) bpm
- SBP change from baseline, mean (95% CI) maximum, week 1 to 8 [1]: 7.29 (6.01, 8.57) mm Hg
- SBP change from baseline, mean (95% CI), week 1 [1]: 0.04 (−1.36, 1.43) mm Hg
- Diastolic BP categorical change from baseline ≥5 mm Hg, patients [2, 5]: 7.4%
- Diastolic BP categorical change from baseline ≥10 mm Hg, patients [2, 5]: 2.1%
- Diastolic BP categorical change from baseline ≥15 mm Hg, patients [2, 5]: 0.7%
- Heart Rate categorical change from baseline ≥5 bpm, patients [2, 5]: 6.5%
- Heart Rate categorical change from baseline ≥10 bpm, patients [2, 5]: 2.1%
- Heart Rate categorical change from baseline ≥15 bpm, patients [2, 5]: 0.5%
- Systolic BP categorical change from baseline ≥5 mm Hg, patients [2, 5]: 9.3%
- Systolic BP categorical change from baseline ≥10 mm Hg, patients [2, 5]: 4.7%
- Systolic BP categorical change from baseline ≥15 mm Hg, patients [2, 5]: 2.1%
- Diastolic BP, 12-week change (95% CI) ([2]; Hypertensive at baseline): −1.3 (−3.8, +1.3) mm Hg
- Heart Rate, 12-week change ([2]; Hypertensive at baseline): +1.5 beats/minute
- Systolic BP, 12-week change (95% CI) ([2]; Hypertensive at baseline): −7.6 (−10.9, −4.3) mm Hg
- Diastolic BP, 12-week change (95% CI) ([2]; Normotensive at baseline): +0.5 (−0.2, +1.3) mm Hg
- Heart Rate, 12-week change ([2]; Normotensive at baseline): +0.2 beats/minute
- Systolic BP, 12-week change (95% CI) ([2]; Normotensive at baseline): +1.0 (−0.1, +2.1) mm Hg
- Diastolic BP, Mean Change from Baseline at Week 12 (SD) ([2]; Week 12, all patients): 0.3 (7.11) mm Hg
- Heart Rate, Mean Change from Baseline at Week 12 ([2]; Week 12, all patients): 0.3 beats/minute
- Systolic BP, Mean Change from Baseline at Week 12 ([2]; Week 12, all patients): 0.1 mm Hg
- Change from baseline in volume voided per micturition at Week 8, difference from placebo in LS means (men and women with OAB): 30.77 mL
- Micturitions: adjusted difference from placebo at Week 8, difference in LS means (MMRM) (men and women with OAB): −0.6
- Micturitions: change from baseline at Week 8, mean (men and women with OAB): −1.73
- Micturitions: daily number of events, Week 8 mean (men and women with OAB): 9.24
- Micturitions: difference from placebo at Week 8, difference in LS means (cLDA) (men and women with OAB): −0.54
- Urgency episodes: adjusted difference from placebo at Week 8, difference in LS means (MMRM) (men and women with OAB): −1.0
- Urgency episodes: change from baseline at Week 8, mean (men and women with OAB): −2.52
- Urgency episodes: daily number of events, Week 8 mean (men and women with OAB): 3.91
- Urgency episodes: difference from placebo at Week 8, difference in LS means (cLDA) (men and women with OAB): −0.94
- Total incontinence episodes: adjusted difference from placebo at Week 8, difference in LS means (MMRM) (men and women with OAB; OAB Wet subjects): −0.3
- Total incontinence episodes: change from baseline at Week 8, mean (men and women with OAB; OAB Wet subjects): −1.80
- Total incontinence episodes: daily number of events, Week 8 mean (men and women with OAB; OAB Wet subjects): 1.32
- Total incontinence episodes: difference from placebo at Week 8, difference in LS means (cLDA) (men and women with OAB; OAB Wet subjects): −0.34
- Urgency incontinence episodes: adjusted difference from placebo at Week 8, difference in LS means (MMRM) (men and women with OAB; OAB Wet subjects): −0.4
- Urgency incontinence episodes: change from baseline at Week 8, mean (men and women with OAB; OAB Wet subjects): −1.67
- Urgency incontinence episodes: daily number of events, Week 8 mean (men and women with OAB; OAB Wet subjects): 1.15
- Urgency incontinence episodes: difference from placebo at Week 8, difference in LS means (cLDA) (men and women with OAB; OAB Wet subjects): −0.46
- AE: ALT increase ([3]; 12-week study): 1 (0.2) n (%)
- AE: AST increase ([3]; 12-week study): 1 (0.2) n (%)
- AE: Atrial fibrillation ([3]; 12-week study): 1 (0.2) n (%)
- AE: Bilirubin increased ([3]; 12-week study): 1 (0.2) n (%)
- AE: Blood creatinine increased ([3]; 12-week study): 1 (0.2) n (%)
- AE: Blood pressure diastolic increased ([3]; 12-week study): 1 (0.2%) n (%)
- AE: Blood pressure increased ([3]; 12-week study): 8 (1.9) n (%)
- AE: Cardiac failure congestive ([3]; 12-week study): 0 n (%)
- AE: Cerebrovascular accident ([3]; 12-week study): 1 (0.2) n (%)
- AE: Chest discomfort ([3]; 12-week study): 0 n (%)
- AE: Chest pain ([3]; 12-week study): 0 n (%)
- AE: Chronic kidney disease ([3]; 12-week study): 0 n (%)
- AE: Constipation ([3]; 12-week study): 6 (1.4) n (%)
- AE: Cystitis ([3]; 12-week study): 1 (0.2) n (%)
- AE: Diarrhea ([3]; 12-week study): 9 (2.1) n (%)
- AE: Dizziness ([3]; 12-week study): 4 (0.9) n (%)
- AE: Drug hypersensitivity ([3]; 12-week study): 0 n (%)
- AE: Dry mouth ([3]; 12-week study): 28 (6.5) n (%)
- AE: Dysuria ([3]; 12-week study): 0 n (%)
- AE: Escherichia urinary-tract infection ([3]; 12-week study): 1 (0.2%) n (%)
- AE: Fatigue ([3]; 12-week study): 6 (1.4) n (%)
- AE: Glomerular filtration rate decreased ([3]; 12-week study): 2 (0.5) n (%)
- AE: Headache ([3]; 12-week study): 11 (2.6) n (%)
- AE: Hepatic enzyme increased ([3]; 12-week study): 1 (0.2) n (%)
- AE: Hot flush ([3]; 12-week study): 1 (0.2) n (%)
- AE: Hyperglycemia ([3]; 12-week study): 2 (0.5) n (%)
- AE: Hypertension ([3]; 12-week study): 11 (2.6) n (%)
- AE: Hypotension ([3]; 12-week study): 1 (0.2) n (%)
- AE: Nasopharyngitis ([3]; 12-week study): 11 (2.6) n (%)
- AE: Nausea ([3]; 12-week study): 5 (1.2) n (%)
- AE: Pollakiuria ([3]; 12-week study): 0 n (%)
- AE: Positional vertigo ([3]; 12-week study): 1 (0.2) n (%)
- AE: Residual urine volume increased ([3]; 12-week study): 6 (1.4) n (%)
- AE: Somnolence ([3]; 12-week study): 2 (0.5) n (%)
- AE: Syncope ([3]; 12-week study): 1 (0.2) n (%)
- AE: Tachycardia ([3]; 12-week study): 1 (0.2) n (%)
- AE: Transaminases increased ([3]; 12-week study): 0 n (%)
- AE: Type 2 diabetes mellitus ([3]; 12-week study): 0 n (%)
- AE: Urinary retention ([3]; 12-week study): 3 (0.7) n (%)
- AE: Urinary tract infection ([3]; 12-week study): 25 (5.8) n (%)
- AE: Vertigo ([3]; 12-week study): 1 (0.2) n (%)
- AE: Back pain ([3]; patients ≥75 years): 2.1%
- AE: Diarrhea ([3]; patients ≥75 years): 4.2%
- AE: Dyspnea ([3]; patients ≥75 years): 0%
- AE: Nausea ([3]; patients ≥75 years): 0%
- AE: Rash ([3]; patients ≥75 years): 0%
- AE: Somnolence ([3]; patients ≥75 years): 2.1%
- AE: Upper respiratory tract infection ([3]; patients ≥75 years): 0%
- AE: Urinary retention ([3]; patients ≥75 years): 4.2%
- AE: Urinary tract infection ([3]; patients ≥75 years): 8.3%
- Overall AE rate ([3]; patients ≥75 years): 50.0%
- Any AE of clinical interest, % ([3]; safety population): (8.8%)
- Patients with at least one treatment emergent serious AEs, % ([3]; safety population): (2.3) %
- SAEs resulting in death, % ([3]; safety population): (0.2) %
- SAEs: Hospitalization, % ([3]; safety population): (1.9) %
- SAEs: other serious criteria, % ([3]; safety population): (0.5) %
- Patients with at least one treatment emergent adverse events, % ([3]; safety population, 12-week study): (38.6) %
- Tachycardia rate ([3]; tolterodine ER 4 mg once daily, 12 weeks): 0.2%
- Patients with at least one Serious AE ([3]; vibegron 75 mg or tolterodine ER 4 mg once daily, 12 weeks): 2.3%
- OAB-q LF Coping Subscore, Week 52 Mean ([4]; 40-Week treatment group): 82.5
- OAB-q LF Coping Subscore, Change from Baseline Mean at Week 52 ([4]; 40-Week treatment group): 24.7
- OAB-q LF Coping Subscore, Week 52 Mean ([4]; 52-Week treatment group): 81.8
- OAB-q LF Coping Subscore, Change from Baseline Mean at Week 52 ([4]; 52-Week treatment group): 22.1
